Usually EC50 stands for the concentration at which the effect is half-maximal. In general, Emax refers to the maximal effect, on the per cent scale that the assay sets.

We go through 15 compounds from ChEMBL document CHEMBL3745662, “Preliminary investigation of 6,7-dihydropyrazolo[1,5-a]pyrazin-4-one derivatives as a novel series of mGlu5 receptor positive allosteric modulators with efficacy in preclinical models of schizophrenia” (Bioorg Med Chem Lett, 2016).

Holding throughout (type): functional, cell-based
In test [1] the target is T1, Metabotropic glutamate receptor 5 (Homo sapiens, UniProt P41594). The experiment in a line: Positive allosteric modulation of human mGlu5 expressed in HEK293 cells assessed as glutamate-induced calcium mobilization. As to conditions: read-out: EC50.
Target sequence in this assay (P41594 whole entry): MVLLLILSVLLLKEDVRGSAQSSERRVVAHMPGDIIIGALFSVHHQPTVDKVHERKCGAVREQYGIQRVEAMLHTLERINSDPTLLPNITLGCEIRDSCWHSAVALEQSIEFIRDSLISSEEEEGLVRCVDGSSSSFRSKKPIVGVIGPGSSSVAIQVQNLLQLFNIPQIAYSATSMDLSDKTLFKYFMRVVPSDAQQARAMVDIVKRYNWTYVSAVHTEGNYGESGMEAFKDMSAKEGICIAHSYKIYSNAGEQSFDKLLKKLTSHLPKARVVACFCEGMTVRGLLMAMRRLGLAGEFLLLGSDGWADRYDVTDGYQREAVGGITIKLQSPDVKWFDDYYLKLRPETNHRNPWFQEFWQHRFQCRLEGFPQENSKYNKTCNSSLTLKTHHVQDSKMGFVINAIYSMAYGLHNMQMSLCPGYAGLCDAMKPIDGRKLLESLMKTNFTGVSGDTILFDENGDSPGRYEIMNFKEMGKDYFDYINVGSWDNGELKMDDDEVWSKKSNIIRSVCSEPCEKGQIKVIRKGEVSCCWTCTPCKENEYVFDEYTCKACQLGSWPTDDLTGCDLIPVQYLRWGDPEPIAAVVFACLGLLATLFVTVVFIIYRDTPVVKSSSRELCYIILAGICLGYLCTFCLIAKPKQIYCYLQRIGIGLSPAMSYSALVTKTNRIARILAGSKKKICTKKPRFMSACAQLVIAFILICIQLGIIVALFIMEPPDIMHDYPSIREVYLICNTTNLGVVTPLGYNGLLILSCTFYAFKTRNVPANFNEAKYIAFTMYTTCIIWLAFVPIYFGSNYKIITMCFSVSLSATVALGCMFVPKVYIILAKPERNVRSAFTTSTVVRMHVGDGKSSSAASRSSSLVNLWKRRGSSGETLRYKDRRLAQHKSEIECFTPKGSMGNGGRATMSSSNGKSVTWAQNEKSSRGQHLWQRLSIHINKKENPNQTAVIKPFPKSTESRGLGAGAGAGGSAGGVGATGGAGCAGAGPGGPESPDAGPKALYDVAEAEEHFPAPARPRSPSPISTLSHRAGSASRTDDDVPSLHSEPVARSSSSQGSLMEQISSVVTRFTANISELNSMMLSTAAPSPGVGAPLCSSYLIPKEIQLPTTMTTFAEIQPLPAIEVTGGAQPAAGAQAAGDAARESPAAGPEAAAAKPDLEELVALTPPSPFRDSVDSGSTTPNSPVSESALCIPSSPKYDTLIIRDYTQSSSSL
The target of test [2] is T1, Metabotropic glutamate receptor 5. As to the kind of experiment: Positive allosteric modulation of human mGlu5 expressed in HEK293 cells assessed as glutamate-induced calcium mobilization relative to glutamate. On the technique in general: Calcium flux is commonly read through the fluorescence of an indicator in the cells.
Target sequence in this assay (P41594 21-1212 limits assumed): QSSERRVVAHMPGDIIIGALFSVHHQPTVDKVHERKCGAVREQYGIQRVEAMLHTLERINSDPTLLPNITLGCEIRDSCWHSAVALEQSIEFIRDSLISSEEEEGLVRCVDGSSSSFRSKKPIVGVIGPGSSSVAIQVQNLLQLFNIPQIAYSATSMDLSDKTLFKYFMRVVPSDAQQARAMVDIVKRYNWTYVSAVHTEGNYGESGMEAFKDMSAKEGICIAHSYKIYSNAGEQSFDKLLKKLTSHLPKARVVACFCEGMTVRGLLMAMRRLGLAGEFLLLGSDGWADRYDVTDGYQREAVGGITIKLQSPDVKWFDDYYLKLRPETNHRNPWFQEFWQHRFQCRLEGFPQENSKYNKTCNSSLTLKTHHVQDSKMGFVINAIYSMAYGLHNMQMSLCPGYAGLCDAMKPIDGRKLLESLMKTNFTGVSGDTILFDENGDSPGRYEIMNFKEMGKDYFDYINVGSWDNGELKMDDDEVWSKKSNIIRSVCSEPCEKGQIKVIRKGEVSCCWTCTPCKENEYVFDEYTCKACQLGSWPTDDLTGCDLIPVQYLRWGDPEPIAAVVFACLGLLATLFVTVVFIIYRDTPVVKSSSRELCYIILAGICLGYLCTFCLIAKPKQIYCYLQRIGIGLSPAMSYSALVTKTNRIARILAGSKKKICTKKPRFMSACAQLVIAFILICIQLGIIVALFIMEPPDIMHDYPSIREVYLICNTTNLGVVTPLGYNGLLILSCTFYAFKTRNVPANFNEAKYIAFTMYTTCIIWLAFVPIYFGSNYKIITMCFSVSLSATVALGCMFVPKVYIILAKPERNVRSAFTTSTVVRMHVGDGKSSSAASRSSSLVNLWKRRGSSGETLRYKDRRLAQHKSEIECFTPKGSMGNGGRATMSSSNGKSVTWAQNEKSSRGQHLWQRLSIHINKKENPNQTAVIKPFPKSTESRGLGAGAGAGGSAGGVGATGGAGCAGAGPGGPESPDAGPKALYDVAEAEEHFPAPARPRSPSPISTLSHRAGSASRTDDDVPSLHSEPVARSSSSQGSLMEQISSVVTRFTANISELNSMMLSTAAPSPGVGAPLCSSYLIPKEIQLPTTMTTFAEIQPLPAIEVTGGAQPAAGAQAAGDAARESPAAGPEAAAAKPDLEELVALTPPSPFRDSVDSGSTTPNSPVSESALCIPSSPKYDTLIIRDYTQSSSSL
The target in test [3] is Metabotropic glutamate receptor 3 (Homo sapiens, UniProt Q14832). The experiment in a line: Antagonist activity at human mGlu3 expressed in HEK293 cells assessed as inhibition of glutamate-induced calcium mobilization.
Chain of Metabotropic glutamate receptor 3 (Q14832 whole entry): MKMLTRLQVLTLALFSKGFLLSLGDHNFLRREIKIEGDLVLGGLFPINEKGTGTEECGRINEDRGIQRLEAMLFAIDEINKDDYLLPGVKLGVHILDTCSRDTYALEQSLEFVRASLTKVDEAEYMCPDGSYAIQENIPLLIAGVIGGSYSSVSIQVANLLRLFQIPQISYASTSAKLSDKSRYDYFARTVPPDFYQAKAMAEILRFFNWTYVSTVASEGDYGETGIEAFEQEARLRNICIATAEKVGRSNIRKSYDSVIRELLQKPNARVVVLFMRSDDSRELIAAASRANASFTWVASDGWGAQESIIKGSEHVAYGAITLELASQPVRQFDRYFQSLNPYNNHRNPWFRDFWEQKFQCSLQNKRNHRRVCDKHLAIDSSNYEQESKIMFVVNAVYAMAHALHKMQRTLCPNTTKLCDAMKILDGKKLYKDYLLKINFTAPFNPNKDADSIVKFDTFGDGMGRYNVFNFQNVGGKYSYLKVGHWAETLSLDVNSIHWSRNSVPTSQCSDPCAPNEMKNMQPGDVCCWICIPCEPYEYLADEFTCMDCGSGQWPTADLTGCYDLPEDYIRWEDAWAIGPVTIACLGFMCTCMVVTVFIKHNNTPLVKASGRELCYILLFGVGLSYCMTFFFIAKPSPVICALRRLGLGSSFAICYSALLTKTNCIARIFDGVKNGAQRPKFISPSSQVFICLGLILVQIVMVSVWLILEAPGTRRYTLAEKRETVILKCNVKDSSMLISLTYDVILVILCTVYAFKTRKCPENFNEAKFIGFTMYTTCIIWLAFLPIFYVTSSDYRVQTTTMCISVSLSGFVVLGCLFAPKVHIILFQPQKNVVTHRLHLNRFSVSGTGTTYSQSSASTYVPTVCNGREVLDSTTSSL

With `O=C1c2cc(COc3ccccc3F)nn2CCN1c1ccc(F)cc1`, the EC50 in test [1] worked out at 0.15 µM. The maximum response (Emax) in test [2] amounted to 66%.

On to `O=C1c2cc(COc3cccc(F)c3)nn2CCN1c1ccc(F)cc1`, for which the concentration giving a half-maximal response (EC50) in test [1] was 0.1 µM. Also, the maximal response (Emax) in test [2] came to 70%.

Consider `Cc1ccc(N2CCn3nc(COc4ccccc4)cc3C2=O)cc1`, for which the concentration for a half-maximal effect (EC50) in test [1] came to 0.071 µM; in test [3], 0.15 µM. For the same compound, the Emax in test [2] was determined as 65%.

Consider `O=C1c2cc(COc3ccccc3)nn2CCN1c1ccncc1`, for which the EC50 in test [1] amounted to 2.09 µM. Further, the Emax in test [2] turned out to be 72%.

With `Cc1c(COc2ccccc2)nn2c1C(=O)N(c1ccc(F)cc1)CC2`, the EC50 in test [1] was determined as 1.23 µM. In addition, the maximal effect (Emax) in test [2] came out at 32%.

As to `O=C1c2cc(COc3ccncc3)nn2CCN1c1ccc(F)cc1`, in test [1], the EC50 worked out at 0.69 µM. Moreover, the maximum response (Emax) in test [2] turned out to be 69%.

Turning to `O=C1c2cc(COc3ccc(F)cc3)nn2CCN1c1ccc(F)cc1`, the EC50 in test [1] worked out at 0.1 µM; in test [3], 0.034 µM. In addition, the maximal effect (Emax) in test [2] amounted to 72%.

As for `O=C1c2cc(COc3ccccc3)nn2CCN1c1ccc(F)c(F)c1`, the EC50 in test [1] was 0.087 µM. The Emax in test [2] amounted to 81%.

`O=C1c2cc(COc3ccc(F)cn3)nn2CCN1c1ccc(F)cc1`: in test [1], the EC50 worked out at 7.94 µM. The maximal effect (Emax) in test [2] stood at 52%.

Regarding `COc1ccc(N2CCn3nc(COc4ccccc4)cc3C2=O)nc1`, the EC50 in test [1] was found to be 0.62 µM. Besides, the maximal response (Emax) in test [2] amounted to 74%.

Take `O=C1c2cc(COc3cccnc3)nn2CCN1c1ccc(F)cc1`: the EC50 in test [1] was found to be 3.98 µM. Moreover, the maximal effect (Emax) in test [2] stood at 69%.

Regarding `Cc1ccc(OCc2cc3n(n2)CCN(c2ccc(F)cc2)C3=O)cc1`, in test [1], the EC50 came out at 0.3 µM. The Emax in test [2] is 58%.

For `O=C1c2cc(COc3ccccc3)nn2CCN1c1ccc(F)cc1`, the 50% effective concentration (EC50) came to 0.065 µM in test [1] and 0.074 µM in test [3]. Besides, the Emax in test [2] amounted to 79%.

On to `O=C1c2cc(COc3ccccc3)nn2CCN1c1cccc(F)c1`, for which, in test [1], the concentration for a half-maximal effect (EC50) was determined as 0.13 µM. Further, the Emax in test [2] stood at 81%.

For `O=C1c2cc(COc3ccccn3)nn2CCN1c1ccc(F)cc1`, the figures for the concentration for a half-maximal effect (EC50) in test [1] and in test [3] were 0.49 µM and 0.29 µM, respectively. Also, the maximal response (Emax) in test [2] was determined as 68%.
